Like-named read-outs stand apart in the source and are kept apart here.
Columns and labels:
superoxide ion [1] = conditions: reported previously; reference not given; read-out: IC50 (SOD activity); cited from earlier work
[2] = for Log βMnL (stability constant of the Mn^2+ complex) / pK aMnL(H2O) (acid dissociation constant of an associated aqua ligand) / Log Ka MnL(H2O) / Log bMnL: I = 0.10 M KCl; for Log βMnL (stability constant of the Mn^2+ complex) / pK aMnL(H2O) (acid dissociation constant of an associated aqua ligand): t = 25 °C; for conditional complex formation: McCord-Fridovich assay conditions, HEPES buffer pH 7.5, excess ligand, Mn^2+ 0.1 μM, estimated from βMnL; for Log Ka MnL(H2O) / Log bMnL: Table S35, t = 25°C; for % Complex (McCord-Fridovich assays): Table S37, ligand 0.001 M (TMPA, DPEA, DPMEA) or 0.01 M (PDEA, PDMEA), MnCl2 0.1 µM, estimated from stability studies; for % Complex (complex formation under cyclic voltammetry conditions): ligand 0.001 M (TMPA) or 0.01 M, MnCl2 0.001 M, estimated from complex stability studies
[3] = Potentiometric titration of the acidified ligands (protonation constants); conditions: I = 0.10 M KCl; for Log βLH1 (protonation constant of the ligand) / Log βLH2 (protonation constant of the ligand): t = 25 °C; for Log Ka1 / Log Ka2: Table S35, t = 25°C
superoxide ion [4] = assay: McCord-Fridovich assay (SOD activity, inhibition of ferricytochrome c reduction by superoxide ion); assay type: biochemical
Text: The McCord–Fridovich assay was used to measure the SOD activity of the Mn^2+ complexes of our ligands formed in situ. This assay utilizes the reaction of xanthine oxidase with xanthine to produce superoxide ion which, in turn, reduces ferricytochrome C. The reduction of ferricytochrome C is monitored at 550 nm in the absence and presence of SOD mimics to determine the concentration at which the complexes inhibit ferricytochrome C reduction by 50%, their IC50 value. […] Stock solutions of cytochrome C, xanthine, xanthine oxidase, catalase, and MnCl2 were also prepared with this buffer. The temperature of the reactions was held constant at 25 °C using a Peltier attachment to the spectrophotometer. For a typical reaction, a solution was prepared in a cuvette containing 50 μM cytochrome c, 50 μM xanthine, 30 μg/mL catalase, and enough buffer to provide a total of 3 mL of solution. Approximately 100 μg/mL xanthine oxidase was added to initiate the reaction. This quantity was adjusted to give an initial velocity of 0.025–0.030 ΔAbs550nm/min. The reaction was monitored at 550 nm. After 2.5 min, a quantity of MnCl2 was added and the absorbance was monitored for another 2.5 min. Reactions were run in triplicate for each different concentration of Mn^2+ examined, and percent inhibition was calculated as %I=(V0−Vf/V0)×100% , where V 0 and V f are the initial and final velocities respectively. Plots of %I vs [Mn^2+] were used to determine the IC50 for each complex. To verify the fidelity of the McCord-Fridovich assay, the production of urate by the xanthine/xanthine oxidase reaction at 290 nm in the absence and presence of each complex, and no inhibition at a concentration higher than the IC50 was observed.
The SOD-like activity of Mn^2+ complexes of the tripodal ligands was evaluated using the McCord-Fridovich assay. This is an indirect assay that examines the reduction of ferricytochrome c by superoxide ion in the absence and presence of SOD or potential SOD mimetic compounds. The reaction of xanthine with xanthine oxidase provides a source of superoxide ion for the assay, and the reduction of ferricytochrome c is monitored at 550 nm. Given their low to moderate aqueous stability, it was not possible to use preformed complexes for these assays since we would not expect them to remain intact at the micromolar concentrations employed. Instead, Mn^2+ complexes were formed in situ, in buffered, aqueous solution (pH 7.5), by combining the ligands with manganese(II) chloride. In each case, an excess of ligand was included to produce Mn^2+ complexation as close to 100% as possible, while avoiding solubility issues. Percent complexation of the complexes under these conditions has been estimated from the 1:1 [MnL]^2+ stability constants (βMnL) in Table , based on the ligand complex concentration employed and an Mn^2+ concentration close to the IC50 values of the complexes (0.1 μM). We note that, given the high concentrations of ligand present in our experiments, higher speciation complexes (e.g., [MnL2]^2+) may also be present in our reaction solutions, resulting from adventitious mono-or bidentate-coordination of an additional ligand. These types of species have been observed previously for Mn^2+ complexes with a related ligand (HPClNOL), where HPClNOL is the tripodal ligand {1-[bis(pyridine-2-ylmethyl)-amino]-3-chloropropan-2-ol}, yet in a 50:50, MeOH/H2O solution where overall complex stability is expected to be much higher. Since we cannot rule out higher speciation under the conditions of these in situ experiments, our use of the term Mn^2+ complexes is meant to indicate all [MnL]^2+ or [MnL x ]^2+ species present in reaction solutions here.
Percent inhibition plots for MnCl2 in both HEPES and phosphate buffer are provided in Supporting Information (Figures S35 and S36). […]

[5] = Cyclic voltammetry of Mn^2+ complexes formed in situ, Mn^III/Mn^II couple; assay type: physicochemical
Method: Cyclic voltammograms were recorded in 50 mM collidine buffer, pH 7.5, using an eDAQ 466 Integrated Potentiostat System with EChem software. Mn^2+ complexes were formed in situ in the presence of excess ligand to ensure a high percentage of complex formation (see Table S35 in Supporting Information) according to our stability studies vide infra. A glassy carbon working electrode, Ag/AgCl reference electrode, and Pt/Ti auxiliary electrode were employed. Prior to recording CVs, solutions were bubbled with nitrogen gas for 15 min to eliminate oxygen. CVs were then recorded at a scan rate of 100 mV/s.
Cyclic voltammograms of the Mn^2+ complexes of TMPA, DPEA, DPMEA, PDEA, and PDMEA, prepared in situ in buffered aqueous solution (pH 7.5), were recorded vs Ag/AgCl to determine the reduction potential (E 1/2) for the Mn^III/Mn^II couple. A cyclic voltammogram of MnCl2 in the buffered solution was also recorded for the purpose of comparison. Collidine buffer was employed for analysis since it tends to permit visualization of electrochemical waves for Mn^2+ complexes with pyridine-containing ligands, where other solvents/buffers can lead to ill-defined or absent features for these species. Ligand and MnCl2 concentrations were chosen to ensure near complete (N4 and N3O), or substantial (N2O2) complex formation according to our stability studies. For [MnTMPA]^2+, an equimolar amount of TMPA and MnCl2 were used (0.001 M), and for all other complexes, ligand concentration (0.01 M) was 10-fold the concentration of MnCl2 (0.001 M). In each case, […] waves were recorded where the difference in oxidation and reduction peak positions (ΔE p) is greater than 59 mV. Redox potential values (E 1/2), determined from the average of the positions of the oxidation and reduction peaks, are given in Table along with ΔE p values. The distinct positions of these peaks, relative to those of MnCl2, further corroborate [MnL]^2+ aqueous complex formation of the N4, N3O, and N2O2 ligands employed. Voltammograms can be found in Supporting Information (Figures S29–S34 ).

[6] = given for comparison to the complexes; reference not given; cited from earlier work
[7] = HEPES buffer, pH 7.5, estimated using kcat=kcytc[cytc]/IC50, k cytc = 2.6 × 10^5 M^–1 s^–1, [cyt c] = 5 × 10^–5 M
[8] = HEPES buffer, pH 7.5, measured IC50 corrected for expected percent complex formation, read-out: apparent IC50
[9] = Mn^2+ complexes formed in situ with excess ligand, 50 mM HEPES buffer, pH 7.5, 25 °C, concentration as Mn^2+, read-out: measured IC50
[10] = collidine buffer, pH 7.5, scan rate 100 mV/s, vs Ag/AgCl

| Molecule | Log βMnL (stability constant of the Mn^2+ complex) [2] | pK aMnL(H2O) (acid dissociation constant of an associated aqua ligand) [2] | conditional complex formation [2] [%] | Log Ka MnL(H2O) [2] | Log bMnL [2] | % Complex (McCord-Fridovich assays) [2] [%] | % Complex (complex formation under cyclic voltammetry conditions) [2] [%] | Log βLH1 (protonation constant of the ligand) [3] | Log Ka1 [3] | IC50 (superoxide ion [4]; [8]) [nM] | IC50 (superoxide ion [4]; [9]) [nM] | Log βLH2 (protonation constant of the ligand) [3] | Log Ka2 [3] | also measured |
| --- | --- | --- | --- | --- | --- | --- | --- | --- | --- | --- | --- | --- | --- | --- |
| OC(CCl)CN(Cc1ccccn1)Cc1ccccn1.[Cl][Mn][Cl] (stereo not shown) [Mn(HPClNOL)Cl2] |  |  |  |  |  |  |  |  |  |  |  |  |  | IC50 (superoxide ion [1]): 350 nM |
| COCCN(CCOC)Cc1ccccn1 [PDMEA, 2-Methoxy-N-(2-methoxyethyl)-N-(pyridin-2-ylmethyl)ethan-1-amine] | 2.32(2) | 6.6(1) | 61 | -6.6(1) | 2.32(2) | 61 | 61 | 6.90(2) | 6.90(2) | 790 | 1300 |  |  | k cat (superoxide ion [4]; [7]): 1.6 × 10^7 M^–1 s^–1 |
| OCCN(Cc1ccccn1)Cc1ccccn1 [DPEA, N,N-Bis(2-pyridylmethyl)ethanolamine] | 4.12(1) | 5.63(1) | 92 | -5.63(1) | 4.12(1) | 92 | 98 | 6.10(1) | 6.10(1) | 140 | 150 | 9.40(3) | 9.40(3) |  |
| COCCN(Cc1ccccn1)Cc1ccccn1 [DPMEA, 2-Methoxy-N,N-bis(pyridin-2-ylmethyl)ethan-1-amine] | 3.71(2) | 6.07(2) | 80 | -6.07(2) | 3.71(2) | 80 | 97 | 6.19(1) | 6.19(1) | 480 | 600 | 9.81(1) | 9.81(1) |  |
| [Cl][Mn][Cl] [MnCl2, manganese(II) chloride, reference compound] |  |  |  |  |  |  |  |  |  |  | 13000 |  |  | ΔE p ([5]; collidine buffer, pH 7.5, scan rate 100 mV/s): 0.285; E oxid [5, 10]: 0.415 V; E red [5, 10]: 0.130 V; E 1/2 vs Ag/AgCl ([5]; collidine buffer, pH 7.5, average of oxidation and reduction peak positions): 0.273 V; E 1/2 vs SHE ([5]; converted using E 1/2 SHE = E 1/2 Ag/AgCl + 0.197 V): 0.470 V; k cat (superoxide ion [4]; 50 mM phosphate buffer, pH 7.5, estimated from IC50): 2.8 × 10^7 M^–1 s^–1; IC50 (superoxide ion [4]; 50 mM phosphate buffer, pH 7.5, read-out: measured IC50): 470 nM; SOD activity in the range of the IC50 values of the complexes (superoxide ion [4]; HEPES buffer): do not observe measurable SOD activity; k cat (superoxide ion [4]; [7]): 1.0 × 10^6 M^–1 s^–1 |
| c1ccc(CN(Cc2ccccn2)Cc2ccccn2)nc1 [TMPA, Tris(pyridin-2-ylmethyl)amine] | 5.24(2) | 4.98(3) | 99 | -4.98(3) | 5.24(2) | 99 | 93 | 6.01(1) | 6.01(1) | 300 | 300 | 10.08(1) | 10.08(1) |  |
| OCCN(CCO)Cc1ccccn1 [PDEA, 2,2′-((Pyridin-2-ylmethyl)azanediyl)bis(ethan-1-ol)] |  | 7.00(2) | 66 | -7.00(2) |  | 66 | 66 | 6.78(1) | 6.78(1) | 70 | 110 |  |  |  |
| Escherichia coli MnSOD: manganese superoxide dismutase enzyme of Escherichia coli (protein, UniProt P00448 2-206, looked up) Superoxide dismutase [Mn]: SYTLPSLPYAYDALEPHFDKQTMEIHHTKHHQTYVNNANAALESLPEFANLPVEELITKLDQLPADKKTVLRNNAGGHANHSLFWKGLKKGTTLQGDLKAAIERDFGSVDNFKAEFEKAAASRFGSGWAWLVLKGDKLAVVSTANQDSPLMGEAISGASGFPIMGLDVWEHAYYLKFQNRRPDYIKEFWNVVNWDEAAARFAAKK |  |  |  |  |  |  |  |  |  |  |  |  |  | E 1/2 vs SHE of MnSOD enzymes [6]: 0.40 V |
| Human MnSOD: human manganese superoxide dismutase enzyme (protein, UniProt P04179 25-222, looked up) Superoxide dismutase [Mn], …: KHSLPDLPYDYGALEPHINAQIMQLHHSKHHAAYVNNLNVTEEKYQEALAKGDVTAQIALQPALKFNGGGHINHSIFWTNLSPNGGGEPKGELLEAIKRDFGSFDKFKEKLTAASVGVQGSGWGWLGFNKERGHLQIAACPNQDPLQGTTGLIPLLGIDVWEHAYYLQYKNVRPDYLKAIWNVINWENVTERYMACKK |  |  |  |  |  |  |  |  |  |  |  |  |  | E 1/2 vs SHE of MnSOD enzymes [6]: 0.29 V |
